Experimental data from US11046694B2, “Compounds and methods for treating bacterial infections” (Entasis Therapeutics, Inc., priority 2018, dated 2021).
Where a name gives a salt, the structure may show the parent alone.

Key:
E. coli (ATCC25922) = experiment: MIC against E. coli; details: Escherichia coli, ATCC25922, read-out: E. coli MIC (ATCC25922) (mg/L)
Y. pestis = experiment: microbe, parasite or virus in culture; details: Yersinia pestis, read-out: MIC against Y. pestis
P. aeruginosa PBP2 = molecular target: T1, P. aeruginosa PBP2 (Pseudomonas aeruginosa, UniProt Q9X6V3); format: biochemical; details: P. aeruginosa PBP2 300 nM, BOCILLIN FL 30 nM, pH 6.2
T1 sequence (Q9X6V3 1-646): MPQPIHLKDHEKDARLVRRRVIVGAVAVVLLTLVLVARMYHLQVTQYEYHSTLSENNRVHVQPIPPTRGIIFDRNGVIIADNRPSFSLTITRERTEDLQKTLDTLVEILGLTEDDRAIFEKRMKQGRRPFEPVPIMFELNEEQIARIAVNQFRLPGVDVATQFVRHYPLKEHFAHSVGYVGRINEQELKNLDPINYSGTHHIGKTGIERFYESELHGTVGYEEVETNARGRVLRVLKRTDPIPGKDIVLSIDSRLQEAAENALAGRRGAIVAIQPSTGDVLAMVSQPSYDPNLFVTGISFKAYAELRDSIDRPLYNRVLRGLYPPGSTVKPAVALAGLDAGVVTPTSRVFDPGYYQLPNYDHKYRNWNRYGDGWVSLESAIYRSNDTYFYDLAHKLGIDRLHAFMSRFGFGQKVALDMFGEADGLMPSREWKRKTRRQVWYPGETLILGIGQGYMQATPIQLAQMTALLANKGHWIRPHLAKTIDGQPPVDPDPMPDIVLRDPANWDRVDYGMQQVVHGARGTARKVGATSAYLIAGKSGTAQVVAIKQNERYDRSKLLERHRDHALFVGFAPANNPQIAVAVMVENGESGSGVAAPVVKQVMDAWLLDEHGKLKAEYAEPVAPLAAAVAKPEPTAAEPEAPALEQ

P. aeruginosa PBP3 = P. aeruginosa PBP3 (Pseudomonas aeruginosa, UniProt G3XD46); format: biochemical; details: P. aeruginosa PBP3 60 nM, BOCILLIN FL 30 nM, pH 7.0
B. mallei = experiment: microbe, parasite or virus in culture; details: Burkholderia mallei, read-out: MIC against B. mallei
F. tularensis = experiment: microbe, parasite or virus in culture; details: Francisella tularensis, read-out: MIC against F. tularensis
[1] = tested on: K. pneumoniae (ATCC700603); experiment: MIC against K. pneumoniae; details: Klebsiella pneumoniae, ATCC700603, read-out: K. pneumoniae MIC (ATCC700603)
A. baumannii (ARC3495) = experiment: MIC against A. baumannii; details: Acinetobacter baumannii, read-out: A. baumannii MIC (ARC3495) (mg/L)
B. anthracis = experiment: microbe, parasite or virus in culture; details: Bacillus anthracis, read-out: MIC against B. anthracis
B. pseudomallei = experiment: microbe, parasite or virus in culture; details: Burkholderia pseudomallei, read-out: MIC against B. pseudomallei
P. aeruginosa PBP1a = P. aeruginosa PBP1a (Pseudomonas aeruginosa, UniProt Q07806); format: biochemical; details: P. aeruginosa PBP1a 60 nM, BOCILLIN FL 30 nM, pH 7.0
P. aeruginosa WT (PAO1) = experiment: MIC, CLSI broth microdilution, P. aeruginosa; format: cell-based; details: Pseudomonas aeruginosa, PAO1; CLSI broth microdilution; read-out: P. aeruginosa WT (PAO1) MIC

Sequence of P. aeruginosa PBP1a (Q07806 whole entry): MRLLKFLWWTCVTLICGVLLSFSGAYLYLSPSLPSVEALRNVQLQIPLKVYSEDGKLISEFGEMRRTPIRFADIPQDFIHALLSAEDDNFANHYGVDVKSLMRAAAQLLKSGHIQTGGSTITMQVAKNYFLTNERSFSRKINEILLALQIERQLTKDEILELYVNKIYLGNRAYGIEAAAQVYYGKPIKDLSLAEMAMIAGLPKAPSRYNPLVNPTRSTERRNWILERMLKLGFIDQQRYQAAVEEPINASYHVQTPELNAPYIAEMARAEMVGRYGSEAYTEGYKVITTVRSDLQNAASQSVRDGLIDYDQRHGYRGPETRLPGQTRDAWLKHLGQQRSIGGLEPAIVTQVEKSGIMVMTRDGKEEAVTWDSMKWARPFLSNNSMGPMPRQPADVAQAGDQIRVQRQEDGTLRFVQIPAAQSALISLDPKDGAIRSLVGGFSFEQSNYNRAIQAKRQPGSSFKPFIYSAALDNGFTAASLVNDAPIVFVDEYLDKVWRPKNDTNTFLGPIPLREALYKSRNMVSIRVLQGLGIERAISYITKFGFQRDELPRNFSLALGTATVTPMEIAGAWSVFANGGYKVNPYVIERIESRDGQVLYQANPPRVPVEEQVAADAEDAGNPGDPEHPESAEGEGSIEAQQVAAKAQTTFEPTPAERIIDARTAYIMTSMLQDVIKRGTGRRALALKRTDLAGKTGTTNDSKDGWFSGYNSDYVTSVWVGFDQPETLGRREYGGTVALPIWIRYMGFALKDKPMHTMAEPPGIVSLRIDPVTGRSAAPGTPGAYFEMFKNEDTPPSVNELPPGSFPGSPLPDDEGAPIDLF
Sequence of P. aeruginosa PBP3 (G3XD46 whole entry): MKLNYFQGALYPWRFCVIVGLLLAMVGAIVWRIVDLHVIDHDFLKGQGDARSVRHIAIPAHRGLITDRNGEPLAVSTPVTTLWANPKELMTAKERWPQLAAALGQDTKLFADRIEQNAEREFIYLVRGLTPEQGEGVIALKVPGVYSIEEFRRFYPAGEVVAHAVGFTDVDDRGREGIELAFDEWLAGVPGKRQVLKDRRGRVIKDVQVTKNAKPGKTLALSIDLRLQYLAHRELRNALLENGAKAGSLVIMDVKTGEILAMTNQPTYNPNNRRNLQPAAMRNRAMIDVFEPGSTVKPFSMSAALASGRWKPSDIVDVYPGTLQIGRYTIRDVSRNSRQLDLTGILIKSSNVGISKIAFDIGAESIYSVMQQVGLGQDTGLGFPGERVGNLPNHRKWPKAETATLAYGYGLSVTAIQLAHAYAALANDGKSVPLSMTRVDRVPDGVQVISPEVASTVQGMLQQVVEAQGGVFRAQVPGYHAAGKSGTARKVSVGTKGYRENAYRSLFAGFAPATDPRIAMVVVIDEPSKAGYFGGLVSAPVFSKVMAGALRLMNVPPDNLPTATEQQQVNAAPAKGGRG

`CN/C(=N\O)[C@@H]1c2c(cnn2C)[C@@H]2CN1C(=O)N2OS(=O)(=O)O` (stereo in doubt) [Example 40, Sodium (4R*,8S*)-8-((Z)—N′-hydroxy-N-methylcarbamimidoyl)-1-methyl-6-oxo-4,8-dihydro-1H-4,7-methanopyrazolo[3,4-e][1,3]diazepin-5(6H)-yl hydrogen sulfate] was tested, and the MIC (E. coli (ATCC25922)) was less than 8 mg/L, the MIC (Y. pestis) was less than 4 µg/mL and the “PBP2 acylation rate, k(on) (M^−1 · s^−1)” value (P. aeruginosa PBP2) was “* (* represents a k(on) < 100 M^−1 · s^−1)”. The “PBP3 acylation rate, k(on) (M^−1 · s^−1)” value (P. aeruginosa PBP3) was “*** (*** represents a k(on) > 10,000 M^−1 · s^−1)”, the MIC (B. mallei) was less than 4 µg/mL and the MIC (F. tularensis) was less than 4 µg/mL. It also gave an MIC [1] of less than 8 µg/mL, an MIC (A. baumannii (ARC3495)) of less than 8 mg/L and an MIC (B. anthracis) of less than 4 µg/mL. For the same compound, the MIC (B. pseudomallei) was less than 4 µg/mL, the “PBP1a acylation rate, k(on) (M^−1 · s^−1)” value (P. aeruginosa PBP1a) was “** (** represents a k(on) of 100 to 10,000 M^−1 · s^−1)” and the MIC (P. aeruginosa WT (PAO1)) was less than 8 µg/mL.
`CN(N)/C(=N\OS(=O)(=O)O)[C@@H]1c2c(cnn2C)[C@@H]2CN1C(=O)N2OS(=O)(=O)O` [Example 72, ((((Z)-((4R,8S)-1-methyl-6-oxo-5-(sulfooxy)-4,5,6,8-tetrahydro-1H-4,7-methanopyrazolo[3,4-e][1,3]diazepin-8-yl)(1-methylhydrazineyl)methylene)amino)oxy)sulfonic acid] was tested, and the MIC (E. coli (ATCC25922)) was less than 8 mg/L, the “PBP2 acylation rate, k(on) (M^−1 · s^−1)” value (P. aeruginosa PBP2) was “* (* represents a k(on) < 100 M^−1 · s^−1)” and the “PBP3 acylation rate, k(on) (M^−1 · s^−1)” value (P. aeruginosa PBP3) was “*** (*** represents a k(on) > 10,000 M^−1 · s^−1)”. The MIC [1] was greater than 16 µg/mL, the MIC (A. baumannii (ARC3495)) was greater than 16 mg/L and the “PBP1a acylation rate, k(on) (M^−1 · s^−1)” value (P. aeruginosa PBP1a) was “** (** represents a k(on) of 100 to 10,000 M^−1 · s^−1)”. It also gave an MIC (P. aeruginosa WT (PAO1)) greater than 16 µg/mL.
